Converted amounts (≈) assume the structure as drawn. “And” between values parts separate entries of the source, which are not always exact repeats. Equal values may be shown once.
Key:
Assay in all cases: ≥ marks a high value that may be exact or a test limit, other limits are often not marked, values filed in µg/mL are converted to µM
[1] = system: Staphylococcus aureus ATCC 6538P
[2] = system: Escherichia coli ATCC 25922
[3] = system: Escherichia coli ATCC 9723H
Escherichia coli NDM = system: Escherichia coli NDM
[4] = system: Pseudomonas aeruginosa 919
[5] = system: Pseudomonas aeruginosa 253
[6] = system: Pseudomonas aeruginosa 910
[7] = system: Pseudomonas aeruginosa PAO1
[8] = system: Escherichia coli ATCC 9637
[9] = system: Candida parapsilosis ATCC 22019
[10] = system: Staphylococcus aureus ATCC 25923
[11] = system: Klebsiella pneumoniae ATCC 27736
[12] = system: Pseudomonas aeruginosa ATCC BAA-427
[13] = system: Staphylococcus aureus ATCC BAA-44
[14] = system: Staphylococcus aureus ATCC 700698
[15] = system: Staphylococcus aureus ATCC 29213
[16] = system: Staphylococcus aureus ATCC 33592
[17] = system: Staphylococcus aureus ATCC 700699
Cryptococcus neoformans = system: Cryptococcus neoformans
[18] = system: Candida albicans ATCC 10231
[19] = system: Bacillus subtilis ATCC 6633
[20] = system: Escherichia coli K12 MG1655
[21] = system: Staphylococcus haemolyticus 527
Bacillus subtilis 168 HT = system: Bacillus subtilis 168 HT
[22] = system: Staphylococcus aureus ST88
[23] = system: Staphylococcus aureus USA 300 LAC
[24] = system: Klebsiella pneumoniae ATCC 13883
[25] = system: Escherichia coli NBRC 14237
[26] = system: Pseudomonas aeruginosa NBRC 12582
[27] = system: Saccharomyces cerevisiae NBRC 10217
[28] = system: Staphylococcus aureus NBRC 12732
[29] = system: Trichosporon beigelii KCTC 7707
[30] = system: Vibrio vulnificus ATCC 29307
[31] = system: Escherichia coli O157:H7 ATCC 43895
[32] = system: Candida albicans ATCC 90028
[33] = system: Malassezia furfur KCTC 7744
[34] = system: Streptococcus mutans KCTC 3065
[35] = system: Enterococcus faecium ATCC 29212
[36] = system: Pseudomonas aeruginosa ATCC 27853
[37] = system: Staphylococcus epidermidis NBRC 12993
[38] = system: Aspergillus oryzae NBRC 100959
[39] = system: Candida viswanathii NBRC 10321
[40] = system: Micrococcus luteus NBRC 3333
[41] = system: Escherichia coli NBRC 3972

Compound: CC[C@H](C)[C@H](NC(=O)[C@@H](NC(=O)[C@@H]1CCCN1C(=O)[C@H](CC(C)C)NC(=O)[C@H](Cc1ccccc1)NC(=O)[C@H](CCCCN)NC(=O)[C@H](CC(N)=O)NC(=O)[C@H](C)NC(=O)[C@H](CC(C)C)NC(=O)[C@@H]1CCCN1C(=O)[C@H](CC(C)C)NC(=O)[C@@H](NC(=O)[C@H](CCCN=C(N)N)NC(=O)[C@@H]1CCCN1C(=O)[C@H](Cc1ccccc1)NC(=O)[C@@H](N)Cc1ccccc1)C(C)C)[C@@H](C)O)C(=O)N[C@@H](Cc1ccc(O)cc1)C(=O)N[C@@H](CS)C(=O)N[C@@H](C)C(=O)N[C@@H](CC(C)C)C(=O)N1CCC[C@H]1C(=O)N[C@@H](CCCCN)C(=O)N[C@@H](CO)C(=O)N[C@H](C(=O)NCC(=O)N[C@@H](CC(N)=O)C(=O)O)C(C)C [FFPRVLPLANKFLPTIYCALPKSVGN]
- MIC [1]: ≥ 88 µM
- MIC [2]: 6 µM (≈ 17.4 µg/mL)
- MIC [3]: 15.6 µM (≈ 45.2 µg/mL)
- MIC (Escherichia coli NDM): 6 µM (≈ 17.4 µg/mL)

Compound: CC[C@H](C)[C@H](NC(=O)[C@@H](N)Cc1ccccc1)C(=O)N[C@@H](CCCCN)C(=O)N[C@@H](Cc1c[nH]c2ccccc12)C(=O)N[C@@H](CCCCN)C(=O)N[C@@H](CCCCN)C(=O)N[C@@H](CCCN=C(N)N)C(=O)N[C@@H](Cc1c[nH]c2ccccc12)C(=O)N[C@@H](Cc1c[nH]c2ccccc12)C(=O)N[C@@H](CCCCN)C(=O)N[C@@H](CCCCN)C(=O)N[C@@H](CCCN=C(N)N)C(=O)N[C@H](C(N)=O)[C@@H](C)O [FIKWKKRWWKKRT]
- MIC [4]: ≥ 32 µM
- MIC [5]: 16 µM (≈ 30.2 µg/mL)
- MIC [6]: 8 µM (≈ 15.1 µg/mL)
- MIC [7]: 4 µM (≈ 7.56 µg/mL)

Compound: CC[C@H](C)[C@H](NC(=O)[C@H](CCCN=C(N)N)NC(=O)CNC(=O)[C@H](CC(C)C)NC(=O)[C@H](CCCCN)NC(=O)[C@H](CCCCN)NC(=O)[C@H](Cc1c[nH]c2ccccc12)NC(=O)[C@H](Cc1ccccc1)NC(=O)[C@H](CO)NC(=O)[C@H](CCCCN)NC(=O)[C@@H](NC(=O)[C@@H](N)Cc1ccccc1)C(C)C)C(=O)N[C@@H](CC(C)C)C(N)=O [FVKSFWKKLGRIL]
- MIC [8]: 6.25 µM (≈ 10.1 µg/mL)
- MIC [9]: 6 µM (≈ 9.73 µg/mL)
- MIC [10]: 3.8 µM and 7.6 µM
- MIC [11]: 3.8 µM (≈ 6.16 µg/mL)
- MIC [12]: 6.8 µM (≈ 11 µg/mL)
- MIC [13]: 12 µM (≈ 19.5 µg/mL)
- MIC [14]: 12 µM (≈ 19.5 µg/mL)
- MIC [15]: 12 µM (≈ 19.5 µg/mL)
- MIC [16]: 12 µM (≈ 19.5 µg/mL)
- MIC [2]: 1.9 µM (≈ 3.08 µg/mL)
- MIC [17]: 12 µM (≈ 19.5 µg/mL)
- MIC (Cryptococcus neoformans): 6 µM (≈ 9.73 µg/mL)
- MIC [18]: 6 µM (≈ 9.73 µg/mL)
- MIC [19]: 3.8 µM (≈ 6.16 µg/mL)

Compound: CC[C@H](C)[C@H](N)C(=O)N[C@H](C(=O)N[C@@H](CCCCN)C(=O)N[C@@H](CCCN=C(N)N)C(=O)N[C@@H](Cc1ccccc1)C(=O)N[C@@H](Cc1ccccc1)C(=O)N[C@@H](CCCN=C(N)N)C(=O)N[C@H](C(=O)N[C@@H](CO)C(=O)N[C@@H](Cc1ccc(O)cc1)C(=O)N[C@@H](CCCCN)C(=O)N[C@@H](CC(C)C)C(=O)N[C@@H](CCC(N)=O)C(=O)N[C@@H](CO)C(=O)N[C@@H](CC(C)C)C(=O)N[C@@H](CCCCN)C(=O)N[C@H](C(=O)N[C@H](C(=O)N[C@@H](CCCCN)C(=O)NCC(=O)N[C@@H](CCCCN)C(=O)N[C@@H](CCCN=C(N)N)C(=O)N[C@H](C(=O)N[C@@H](Cc1ccccc1)C(=O)N[C@H](C(=O)O)[C@@H](C)O)[C@@H](C)O)[C@@H](C)CC)[C@@H](C)CC)[C@@H](C)CC)C(C)C [IVKRFFRISYKLQSLKIIKGKRTFT]
- MIC [20]: 10.5 µM (≈ 32.3 µg/mL)
- MIC [21]: 5.3 µM (≈ 16.3 µg/mL)
- MIC (Bacillus subtilis 168 HT): 5.3 µM (≈ 16.3 µg/mL)
- MIC [22]: ≥ 100 µM

Compound: CC[C@H](C)[C@H](N)C(=O)N[C@@H](Cc1c[nH]c2ccccc12)C(=O)N[C@@H](Cc1c[nH]c2ccccc12)C(=O)N[C@@H](Cc1c[nH]c2ccccc12)C(=O)N[C@@H](Cc1c[nH]c2ccccc12)C(=O)N[C@@H](CC(C)C)C(=O)N[C@@H](CCCN=C(N)N)C(=O)N[C@@H](CCCCN)C(N)=O [IWWWWLRK]
- MIC [23]: 3.1 µM (≈ 3.94 µg/mL)
- MIC [24]: 17.7 µM (≈ 22.5 µg/mL)
- MIC [2]: 12.5 µM (≈ 15.9 µg/mL)

Compound: CSCC[C@H](NC(=O)CNC(=O)[C@@H](NC(=O)[C@H](CCCCN)NC(=O)[C@H](C)NC(=O)CNC(=O)[C@@H](NC(=O)[C@H](CCCCN)NC(=O)[C@H](C)NC(=O)[C@H](C)NC(=O)[C@H](CCCCN)NC(=O)[C@H](CCCCN)NC(=O)[C@H](CC(C)C)NC(=O)[C@H](Cc1ccccc1)NC(=O)[C@H](CC(N)=O)NC(=O)[C@H](CC(C)C)NC(=O)[C@H](Cc1ccccc1)NC(=O)[C@H](CCCCN)NC(=O)CNC(=O)CNC(=O)[C@@H](N)CCCCN)C(C)C)C(C)C)C(=O)N[C@@H](C)C(=O)N[C@@H](C)C(=O)N[C@@H](CC(C)C)C(=O)NCC(=O)O [KGGKFLNFLKKAAKVGAKVGMAALG]
- MIC [25]: 3.12 µM (≈ 7.83 µg/mL)
- MIC [26]: 6.25 µM (≈ 15.7 µg/mL)
- MIC [27]: 6.25 µM (≈ 15.7 µg/mL)
- MIC [28]: 3.12 µM (≈ 7.83 µg/mL)

Compound: CC(C)C[C@H](N)C(=O)N[C@@H](CCCN=C(N)N)C(=O)N[C@@H](CCC(N)=O)C(=O)N[C@@H](CO)C(=O)N[C@@H](CCC(N)=O)C(=O)N[C@@H](Cc1ccccc1)C(=O)N[C@H](C(=O)NCC(=O)N[C@@H](CO)C(=O)N[C@@H](CCCN=C(N)N)C(N)=O)C(C)C [LRQSQFVGSR]
- MIC [29]: 21.3 µM (≈ 25.1 µg/mL)
- MIC [30]: ≥ 42.5 µM
- MIC [31]: 10.6 µM (≈ 12.5 µg/mL)
- MIC [10]: 42.5 µM (≈ 50 µg/mL)
- MIC [32]: ≥ 42.5 µM
- MIC [33]: ≥ 42.5 µM
- MIC [34]: 21.3 µM (≈ 25.1 µg/mL)
- MIC [35]: 21.3 µM (≈ 25.1 µg/mL)
- MIC [36]: 21.3 µM (≈ 25.1 µg/mL)

Compound: CSCC[C@H](NC(=O)[C@H](CCCCN)NC(=O)[C@@H](N)CCCN=C(N)N)C(=O)N[C@@H](CCCCN)C(=O)N[C@@H](CCCN=C(N)N)C(=O)N[C@H](C(=O)N[C@@H](Cc1c[nH]c2ccccc12)C(=O)N[C@@H](CCCCN)C(=O)N[C@@H](CCCN=C(N)N)C(=O)N[C@@H](Cc1ccccc1)C(=O)N[C@@H](CCCCN)C(=O)N[C@@H](CC(C)C)C(=O)O)C(C)C [RKMKRVWKRFKL]
- MIC [37]: 14.9 µM (≈ 25 µg/mL)
- MIC [38]: 14.9 µM (≈ 25 µg/mL)
- MIC [39]: 14.9 µM (≈ 25 µg/mL)
- MIC [40]: 29.8 µM (≈ 50 µg/mL)
- MIC [41]: ≥ 239 µM

From DBAASP
